Active and inactive are the calls of the source.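 How the source made its calls: active means AC50 no more than ten times the top concentration tested, that is within one log above it; inconclusive means flat curve fit with activity between 30% and 70%, or invalid poor fit; inactive means AC50 beyond ten times the top tested dose.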 Residues, ends and D or L forms follow the SMILES beside them.

The AC50 is the concentration at which the activity in the assay is half-maximal.

The assay concerns S. cerevisiae Mot1-301 ts growth rescue, BacTiter-Glo ATP luminescence. The assay is described as follows: restored Mot1-301 yeast growth at 38.5C – whole organism, S. cerevisiae, Mot1-301 ts mutant, luminescence, dose retest, SUMOylation pathway inhibitor project, confirmation (AID 463204).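 Further: growth at restrictive 38.5 degrees C of Mot1-301 OY566 strain; actives raise luminescence by restoring growth of the ts mutant at high temperature.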
Take `O=S(=O)(NCc1ccco1)c1ccc2ccccc2c1`: the AC50 was > 42 µM (inactive).
As for `COc1ccc(CN(C)C(=O)c2sccc2-c2ccccc2)c(OC)c1`, the figure is > 42 µM (inactive).
The result for `CC(C)(CNC(=O)c1cccs1)CNC(=O)c1cccs1` reads > 42 µM (inactive); that for `COc1cc2c(cc1OC)C(c1ccc(SC)cc1)CC(=O)N2` (stereo not drawn), > 42 µM (inactive).
As for `CN(C)c1ccc(/C=N\Nc2ccccn2)cc1`, the figure is > 42 µM (inactive).
Turning to `Cc1ccc(CNC(=O)CCNS(=O)(=O)c2cccs2)cc1`, the AC50 is > 42 µM (inactive).
For the compound `COc1ccc(N2C(=O)CSC2c2ccc([N+](=O)[O-])cc2)cc1` (stereo not drawn), the AC50 was > 42 µM (inactive).
The result for `CCCCc1ccc(S(=O)(=O)NNC(=S)NCc2ccco2)cc1` reads > 42 µM (inactive).
As for `C=CCNC(=O)c1cc(-c2cccnc2)nc2ccccc12`, the figure is > 42 µM (inactive); as for `CC1(C)CC(=O)C2=C(C1)OC(N)=C(C#N)C21C(=O)N(CN2CCOCC2)c2ccccc21` (stereo not drawn), > 42 µM (inactive).
The result for `Cn1c(=O)c2c(ncn2CC(=O)N2CCCCCC2)n(C)c1=O` reads > 42 µM (inactive); that for `Oc1c(Cl)cc(Cl)c(Cl)c1Cc1c(O)c(Cl)cc(Cl)c1Cl`, 0.84 µM.
Consider `Fc1ccc(-c2n[nH]c(=S)n2CC2CCCO2)cc1` (stereo not drawn), for which the AC50 was > 42 µM (inactive).
Take `O=C(c1ccc2c(=O)n(Cc3ccccc3Cl)c(=S)[nH]c2c1)N1CCOCC1`: the AC50 was > 42 µM (inactive).
On to `COc1ccc(C(=O)c2c(C)c3cc(C)ccc3n2CC(O)CN2CCOCC2)cc1` (stereo not drawn), for which the AC50 was > 21 µM (inactive).
`CCCCN(C)C(=O)CCC(=O)Nc1ccc2nc(N3CCN(C)CC3)cc(C)c2c1`: the AC50 was > 42 µM (inactive).
The result for `Cc1cccc(N=C2C(=O)Nc3c(Cl)cccc32)c1` reads > 42 µM (inactive); that for `COCc1nnc(NC(=O)CC(C)C)s1`, > 42 µM (inactive).
As for `O=C(CCS(=O)(=O)c1ccc(Br)s1)NCc1ccccc1`, the figure is > 42 µM (inactive); as for `O=C(c1ccc([N+](=O)[O-])cc1)N1CCN(c2ncc(Br)cn2)CC1`, > 42 µM (inactive).
Consider `O=C(NCc1cccnc1)C1CCN(S(=O)(=O)c2cccnc2)CC1`, for which the AC50 is > 42 µM (inactive).
As for `O=c1/c(=C/c2ccco2)sc2nc(-c3ccccc3Br)nn12`, the figure is 5.74 µM; as for `CNC(=O)COC(=O)c1cc(-c2ccco2)nc2ccccc12`, > 42 µM (inactive).
As for `COc1cccc(-n2nnc3c(=O)n(CC(=O)N4CCCc5ccccc54)cnc32)c1`, the figure is > 42 µM (inactive); as for `O=C(Nc1cc(F)ccc1F)C1CCCO1` (stereo not drawn), > 42 µM (inactive); as for `CCCCOc1ccc(C(O)C(CN2CCOCC2)c2ccccc2)cc1` (stereo not drawn), > 42 µM (inactive).
The result for `CC1(C)C2CC[C@]3(C)C(CC=C4[C@@H]5C[C@@](C)(CO)[C@@H](O)C[C@]56C[C@@H](OC6=O)[C@]43C)[C@@]2(C)CC[C@@H]1O` (stereo partly drawn) reads > 42 µM (inactive).
As for `COC(=O)c1c(C)cc(O)c(C=O)c1O`, the AC50 was 17.7 µM.
The result for `CC(C)(C)NC(=O)C1Cc2ccccc2CN1S(=O)(=O)c1ccc(F)cc1` (stereo not drawn) reads > 42 µM (inactive).
The result for `CN(C)S(=O)(=O)N1CCc2ccccc2C1` reads > 42 µM (inactive); that for `CC(C)C(NC(=O)c1ccccc1)C(=O)NCC(c1ccccc1)N(C)C` (stereo not drawn), > 42 µM (inactive).
Consider `O=C(Nc1nc2ccccc2s1)c1cccc(S(=O)(=O)N2CCc3ccccc32)c1`, for which the AC50 is > 42 µM (inactive).
As for `C=CCn1c(CCC)nc2ccccc21`, the figure is > 42 µM (inactive); as for `CC(C)(C)C(=O)NC1(C(F)(F)F)NC(=O)N(c2ccccc2F)C1=O` (stereo not drawn), > 42 µM (inactive); as for `Cc1ccc(Nc2cc(C)nc3c(C)ccc([N+](=O)[O-])c23)cc1`, 13.8 µM.
The result for `O=C(O)CCSc1ccc([N+](=O)[O-])cc1[N+](=O)[O-]` reads 8.27 µM; that for `Cc1ccc(NC(=O)COc2ccccc2C(=O)NCCN(C)C)cc1`, > 42 µM (inactive); that for `CCC(C)NCCOc1ccccc1C` (stereo not drawn), > 42 µM (inactive).
Regarding `CC1CN(C(=O)c2cc([N+](=O)[O-])cc([N+](=O)[O-])c2)CC(C)O1` (stereo not drawn), the AC50 was > 42 µM (inactive).
As for `N#CCC(=O)N/N=C/c1ccc(OS(=O)(=O)c2ccccc2)cc1`, the AC50 is > 42 µM (inactive).
On to `N#CC1=C(N)Oc2c(ccc3ccccc23)C1c1cccs1` (stereo not drawn), for which the AC50 was > 42 µM (inactive).
The result for `CNC(=O)NNC(=O)c1csc(-c2ccc(C(F)(F)F)cc2Cl)n1` reads > 42 µM (inactive); that for `O=C(c1cc(N2C(=O)C3C4CCC(C4)C3C2=O)ccc1Cl)N1CCCCCC1` (stereo not drawn), > 42 µM (inactive); that for `C=C(C)C(=O)Nc1cccnc1Oc1ccc(F)cc1F`, > 42 µM (inactive).
The result for `C=CCN1C(=O)/C(=C\c2ccc(C)cc2)N=C1SCC(=O)NCCC` reads > 42 µM (inactive).
The result for `O=C(CN1CCN(Cc2ccc(F)cc2)CC1)NCc1ccccc1` reads > 42 µM (inactive); that for `Cc1cc(C)c2cc(C)c3nnc(SCC(=O)NCc4ccc5c(c4)OCO5)n3c2c1`, > 42 µM (inactive); that for `O=C(CCCC(=O)N(CC(=O)NC1CCCC1)c1cccc(F)c1)Nc1ccccn1`, > 42 µM (inactive).
`COc1ccc(C(=O)N2CCN(c3ccc(NC(=O)c4cccnc4)cc3)CC2)cc1`: the AC50 is > 42 µM (inactive).
The result for `Cc1ccc(S(=O)(=O)NC2CCCCCCC2)cc1` reads 18.1 µM; that for `CCCCCCC(C)n1[nH]c(=O)c2c(C)cc(=O)[nH]c21` (stereo not drawn), > 42 µM (inactive).
As for `CCOC(=O)N1CCN(C(=O)c2ccc(OC)c(OC)c2)CC1`, the figure is > 42 µM (inactive); as for `CC(C)(C)CC(=O)Nc1cc(S(=O)(=O)N2CCOCC2)ccc1N1CCCC1`, > 42 µM (inactive).
With `Cc1cc(Oc2cc(NN3CCCCC3)c([N+](=O)[O-])cc2[N+](=O)[O-])ccc1[N+](=O)[O-]`, the AC50 is > 42 µM (inactive).
Consider `CC(=O)NC(CC(C)C)C(=O)NC(CO)C(=O)NC(CCC(=O)O)C(=O)NC(C)C(=O)NC(CC(C)C)C(N)=O` (stereo not drawn) (Ac-LSEAL-NH2; configuration not given here), for which the AC50 was > 42 µM (inactive).
As for `CCc1cc(/C(Cc2ccccn2)=N\O)c(O)cc1O`, the figure is > 42 µM (inactive); as for `CCN1C(=NCC(C)C)N[C@@H](c2cccc(C(F)(F)F)c2)C(C(=O)OC)=C1C`, > 42 µM (inactive); as for `CS(=O)(=O)N(CCc1ccccc1)CC(=O)NCc1cccnc1`, > 42 µM (inactive).
The result for `Cc1nc2sc(C(c3ccco3)N3CCOCC3)c(O)n2n1` (stereo not drawn) reads > 42 µM (inactive); that for `Cc1ccc(NC(=S)N2CCN(Cc3ccc4c(c3)OCO4)CC2)c(C)c1`, > 42 µM (inactive); that for `CCN(CC)CC(=O)Nc1ccc(Oc2ccc(NC(=O)CN(CC)CC)cc2)cc1`, > 42 µM (inactive).
Regarding `CN(C)CC/C=C1\c2ccccc2Sc2ccc(Cl)cc21`, the AC50 was > 42 µM (inactive).
With `COC(=O)c1cc(N=Nc2c(C)[nH]c3ccccc23)cc(C(=O)OC)c1`, the AC50 was > 42 µM (inactive).
As for `C=CCNC(=O)NC(=O)COC(=O)/C(C#N)=C/c1cc(C)n(CC(C)C)c1C`, the figure is > 42 µM (inactive); as for `CC1(OC(=O)CCc2ccccc2)C(=O)C=C2C=C(c3ccc(C#N)cc3)N(CC3CC3)C=C2C1=O` (stereo not drawn), > 42 µM (inactive); as for `CCN(C(=O)Nc1ccccc1OC)c1c(N)n(Cc2ccccc2)c(=O)[nH]c1=O`, > 42 µM (inactive).
The result for `COc1ccccc1N1C(=O)c2ccccc2NC1C(OC)OC` (stereo not drawn) reads > 42 µM (inactive); that for `Cn1c(=NC(=O)COc2ccccc2)sc2cc(F)cc(F)c21`, > 42 µM (inactive).
Turning to `C/C=C/C(=O)N1c2ccc(C)cc2C(C)=CC1(C)C`, the AC50 was > 42 µM (inactive).
Regarding `COC(=O)C(CC(C)C)NC(=O)CNC(=O)c1ccccc1C` (stereo not drawn), the AC50 is > 42 µM (inactive).
For `CC1CCCCC1N=CC1=C(O)CC(C)(C)CC1=O` (stereo not drawn), the AC50 is > 42 µM (inactive).
As for `CC1CCN(CCCCOc2ccc(Cl)cc2)CC1`, the AC50 was > 42 µM (inactive).
As for `COCC(=O)n1nc(-c2ccccc2)nc1NCc1ccc(N(C)C)cc1`, the figure is > 42 µM (inactive).
The result for `CC(=O)OCC(OC(C)=O)C(OC(C)=O)C(OC(C)=O)C(=O)Nc1ccccc1` (stereo not drawn) reads > 42 µM (inactive); that for `CC(=O)c1ccc(N2CCN(CC(=O)Nc3cc(C)on3)CC2)cc1`, > 42 µM (inactive).
`COc1cccc(C2CC(c3cccc(NS(C)(=O)=O)c3)=NN2C(=O)c2ccccc2)c1OC` (stereo not drawn): the AC50 was > 42 µM (inactive).
The result for `COc1cc(C(=O)NCCC2=CCCCC2)ccc1OC1CCN(C(C)=O)CC1` reads > 42 µM (inactive); that for `CCC(C)(C)n1nnnc1C(c1ccc(OC)c(OC)c1)N1CCN(c2cccc(OC)c2)CC1` (stereo not drawn), > 42 µM (inactive).
As for `Nc1ccc(NC(=O)c2ccco2)c(Cl)c1`, the figure is > 42 µM (inactive); as for `N#CC1=C(SCC(N)=O)NC(=O)CC1c1ccccc1Cl` (stereo not drawn), 28.4 µM.
The result for `CCOP(=O)(OCC)C(NC(=O)c1cccc(C)c1)C(Cl)(Cl)Cl` (stereo not drawn) reads > 42 µM (inactive); that for `CCCCn1c(SCC(=O)Nc2cc(C)on2)nnc1-c1ccco1`, > 42 µM (inactive); that for `O=C(/C=C/c1cccc([N+](=O)[O-])c1)NCCSCc1ccc(Cl)cc1Cl`, > 42 µM (inactive).
For the compound `Oc1c(Br)cc(Br)cc1C=Nc1ccc2[nH]ncc2c1`, the AC50 is 4.76 µM.
As for `Cc1ccc(S(=O)(=O)N2CCCC2C(=O)NCCc2ccccc2)cc1` (stereo not drawn), the figure is > 42 µM (inactive).
The result for `Cc1cc(OCC(=O)NCC2CCC(C(=O)O)CC2)c2c(C)c(C)c(=O)oc2c1` (stereo not drawn) reads > 42 µM (inactive); that for `Cc1ccccc1C(=O)NN(C)c1nc2ccccc2nc1C(F)(F)F`, > 42 µM (inactive); that for `CC(C)C1=CC(=Nc2ccc(S(N)(=O)=O)cc2)C=C(C(C)C)C1=O`, > 42 µM (inactive).

The values above are taken from PubChem BioAssay AID463204 (Broad Institute, 2010).
